Read-outs that look alike come from different tables or passages of the source.
What was measured:
[1] = Crystallinity of injection moulded articles; format: physicochemical; details: 0.5% salt, mould 120 °C, cycling time 12 seconds, based on heat of fusion 24 Cal/g
Procedure: The extruded product of Example 6 has been dried (120° C.) in a ventilated oven. The obtained pellets have been moulded by injection in a Buhler Rover 63 machine.
Different cycling times have been experimented.

[2] = water; cited from earlier work
[3] = Degradation constant K (melt degradation performance); format: physicochemical
Procedure: (§1) The melt degradation performance is a measure of the extent of degradation under molten conditions. A convenient method of quantifying the performance is by measuring the "K value". A method for determining this value in the molten state using an Instron Capillary rheometer is given in a paper by J. Devaux et al in Makromol.
(§2) This method is carried out on samples prepared by reacting the salt with the polyester on a 2 roll-mill at a temperature above the melting point of the polyester for 5 minutes and then pressing the product obtained into a 2 mm thick sheet using the same temperature for 3 minutes before cooling to room temperature. The method is described for polyethylene terephthalate but can be readily adapted for other polyesters.
For polyethylene terephthalate the K value in the presence of salt should be less than 60.

[4] = Half-crystallisation time (t1/2), isothermal DSC; format: physicochemical
Procedure: A DSC 2 Perkin Elmer scanning calorimeter was used.
10 mg of the sample of polymer material are placed in a capsule and introduced into the apparatus, wherein the sample is quickly heated to a temperature of 290° C. at which it is maintained during 1 minute.
The molten polymer material is then very quickly cooled by means of liquid air (at a rate of 320° C. per minute) until the crystallisation temperature is reached.
The crystallisation isotherm is registered on a temperature-time graph and the peak appearing on the registered isotherm is taken as the half-crystallisation time (t1/2).

[5] = ΔT = Tc(cooling) - Tn(heating), DSC; format: physicochemical
Procedure: An alternative method for assessing the effectiveness of nucleation of an additive is to compare the difference between the value of the crystallisation peak on cooling (Tc) with that on heating (Tn) for a composition containing an ionisable salt. The value obtained from this comparison, Tc(cooling) -Tn(heating) is termed ΔT. […] Samples of polyester together with 1% of the salt under test were mixed in a 2-roll mill at 270° C. for 5 minutes. The sample produced was pressed into 2 mm thick sheets at 270° C. for 3 minutes and then cooled to room temperature. 10 mg of the sample was placed in a capsule and rapidly heated to 290° C. After maintaining this temperature for 1 minute the capsule was quenched in water. The crystallisation peak temperatures on heating (Tn) and cooling (Tc) were determined using heating and cooling rates of 10° C./minute on a Perkin Elmer DSC 2 machine.

[6] = Solubility parameter δ of the acid
[7] = Degradation constant K (melt degradation performance); format: physicochemical; details: 1% salt deposited from solution on PET (Examples 13-15); listed as disodium salt of o-hydroxy benzoic acid
[8] = Crystallisation peak temperature on heating (Tn), DSC; format: physicochemical; details: 1% salt deposited from solution on PET, pressed 280 °C 1 minute; heating rate 16 °C/minute; listed as disodium salt of o-hydroxy benzoic acid
Procedure: In one such DSC technique the crystallisation peak temperature difference, Tn(composition)--Tn(polyester) is determined by measuring the crystallisation peak temperatures on heating for the composition in comparison with the polyester of the composition not containing the ionisable salt. The detailed procedure is as follows. Compositions were prepared from the polyester and the additive by mixing on a 2-roll mill at 300° C. for 2 minutes. The sample was taken from the mill and pressed into a film in a compression moulding machine. 10 mg samples of the composition were placed in a capsule, rapidly heated to 290° C. and maintained at that temperature for 1 minute. The capsule was then dropped into water to quench the polymer and prevent crystallisation. The sample was then placed in a Perkin Elmer DSC 2 machine and heated at a rate of 10° C./minute until reaching a temperature of 290° C. The crystallisation peak temperature observed on this heating cycle is recorded and compared with the value for the polyester not containing the additive.
Samples of polyethylene terephthalate (I.V. =0.73) containing 1% of the salts listed in Table 2 were prepared by compounding at 300° C. on a 2-roll mill for 2 minutes. The samples were evaluated to determine Tn(composition-Tn(polyester), the total number of end groups, the number of carboxylate groups and the number of hydroxyl and carboxyl groups.
The salts listed in Table 3 were deposited from solution on the surface of polyethylene terephthalate chip to give a concentration of 1% by weight of salt. The product was dried under vcuum at 96° C. for 3 hours. The compositions were pressed into film using a temperature of 280° C. for 1 minute. The DSC measurements were made after quenching from the melt to prevent crystallisation and using a heating rate of 16° C./minute.
1% by weight of the sodium salt of saccharin was deposited on the surface of granules of a polyethylene terephthalate homopolymer of I.V. =0.73 by evaporating an aqueous solution of the salt from the granules by drying at 96° C. under vacuum for 3 hours. The granules obtained were compression moulded into film by pressing at 280° C. for 60 second. The film was used for measurements of Tn at a heating rate of 16° C./minute.
The effect of the salts listed in Table 4 was determined by taking granules of a polymer of poly(ethylene terephthalate) homopolymer having an intrinsic viscosity of 0.73 and evaporating a solution of the salt in methanol or water from the surface of the granules by drying at 96° C. under vacuum for 3 hours. The proportions of polymer and solution used were such as to give a concentration of 1% of salt by weight of the final dry composition. The granules obtained were compression-moulded into film at 280° C. for various periods of time. The film was used for measurement of Tn as hereinbefore described.
Two samples of polyethylene terephthalate chip (I.V. =0.73) were coated from solution with 1% of the sodium salt of o-hydroxybenzoic acid and the disodium salt of the same acid respectively. After drying for 3 hours in a vacuum oven at 95° C. films were prepared by pressing the products for 1 minute at 280° C.

[9] = End group determination, block copolymer; format: physicochemical; details: 1% salt, 2-roll mill 270 °C 2 minutes
Procedure: The total number of end groups in the polyester were found by determining the intrinsic viscosity of the polyester and using the correlation between I.V. and number of end groups given in Transactions of the Faraday Societ 1961, Volume 57, pages 150 to 159. The numbers of hydroxyl and carboxyl groups were also determined according to the procedure given in this paper.
(§3) The polymer used in Example 16 and 1% of the disodium salt of o-hydroxy benzoic acid were compounded on a 2-roll mill at 270° C. for 2 minutes. […] (measured at a heating rate of 10° C./minute).

[10] = Crystallisation peak temperature on heating (Tn), DSC, block copolymer; format: physicochemical; details: 1% salt, 2-roll mill 270 °C 2 minutes, block copolymer; heating rate 10 °C/minute
Procedure: A block copolymer containing 5% by weight of polyethylene glycol units of molecular weight 1540 in chip form was blended with a solution of the sodium salt of o-chlorobenzoic acid to give a salt concentration of 1% by weight of the polyester. Samples were prepared for DSC analysis using the procedure of Example 15.
as §3

[11] = Degradation constant K, block copolymer; format: physicochemical; details: 1% salt, 2-roll mill 270 °C 2 minutes, compared with polyester itself
Procedure: as §1, with “Makromol. Chem. 179, 2201-2209 (1978).” for “Makromol.”
as §2, §3

Row | SMILES | crystallinity [1] | pKH.sbsb.2O [2] | K [3] | t1/2 (sec) 110° C. [4] | t1/2 (sec) 120° C. [4] | ΔT [5] | δ × pKH.sbsb.2O [6] | K [7] | K ([3]; 1% salt in PET, 2-roll mill 270 °C 5 min, molten state 290 °C) | Tn (16° C./min) [8] | total number of end groups determined from the intrinsic viscosity [9] | ΔT ([5]; 1% salt in PET, 2-roll mill 270 °C 5 min, 10 °C/minute) | Tn [10] | K value [11]
1 | O=C([O-])c1ccc([N+](=O)[O-])cc1Cl.[Na+] | 40% | 2 | 39 | 90 s | 48 s | 103 | 26 | – | – | – | – | – | – | –
2 | O=C(O)c1ccccc1O [ortho-ONa-benzoic acid] | – | – | – | 70 s | 49 s | – | – | 24 | 24 | 108 °C | 137 | 110 °C | 100 °C | less than that for the polyester itself

— patent US4393178A, “Fast crystallizing polyester compositions” (priority 1979, dated 1983)
